Structures are written as SMILES. Entries after “also recorded” stand apart in the source; their conditions may differ.

Experiment [1] addresses T1, rat cloned 5-HT7 receptor (Rattus norvegicus, UniProt P32305).
T1 construct: purchased PerkinElmer-NEN; host or cells: HEK-293
The experiment in a line: Radioligand binding assay ([3H]-LSD) at rat cloned 5-HT7Rs. The conditions noted are these: for Ki: [3H]-LSD, rat recombinant 5-HT7R expressed in HEK-293 cells. As for the experimental part: Rat recombinant serotonin 5-HT7R expressed in HEK-293 cells were purchased from PerkinElmer-NEN (Betsville, Md., USA).
Radioligand Binding Assay at Rat Cloned 5-HT7Rs. Binding of [^3H]-LSD at rat cloned 5-HT7 receptor was performed according to a known method. In 1 mL of incubation buffer (50 mM Tris, 10 mM MgCl2 and 0.5 mM EDTA, pH 7.4) were suspended 30 μg of membranes, 2.5 nM [^3H]-LSD, the drugs or reference compound (six to nine concentrations). The samples were incubated for 60 min at 37° C. The incubation was stopped by rapid filtration on GF/A glass fiber filters (pre-soaked in 0.5% polyethylenimine for 30 min). The filters were washed with 3 ? 3 mL of ice-cold buffer (50 mM Tris, pH 7.4). Nonspecific binding was determined in the presence of 10 μM 5-CT. Approximately 90% of specific binding was determined under these conditions.

The next experiment deals with T2, 5-HT1A receptors (Rattus norvegicus, UniProt P19327).
T2 sequence (P19327 1-422): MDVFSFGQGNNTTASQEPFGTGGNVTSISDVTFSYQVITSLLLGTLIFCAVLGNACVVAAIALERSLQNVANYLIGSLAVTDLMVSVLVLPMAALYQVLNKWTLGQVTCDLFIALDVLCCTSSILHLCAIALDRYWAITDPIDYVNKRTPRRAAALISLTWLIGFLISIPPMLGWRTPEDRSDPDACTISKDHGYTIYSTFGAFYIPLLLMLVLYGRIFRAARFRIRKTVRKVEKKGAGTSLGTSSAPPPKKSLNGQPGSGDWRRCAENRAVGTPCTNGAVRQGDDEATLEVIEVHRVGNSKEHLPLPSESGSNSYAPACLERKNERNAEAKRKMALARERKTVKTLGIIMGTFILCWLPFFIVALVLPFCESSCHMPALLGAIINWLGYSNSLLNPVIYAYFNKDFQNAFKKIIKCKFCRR
The conditions noted are these: for Ki: read-out: Ki, nM 5-HT1A, [3H]-8-OH-DPAT, rat hippocampal membranes.

A further experiment concerns the target 5-HT7 receptor (Cavia porcellus, UniProt P50407). The experiment can be described thus: Isolated guinea-pig ileum assay: relaxation of substance P-induced contraction. The conditions noted are these: for 5-HT7 intrinsic activity (in words): isolated guinea-pig ileum; for Emax: read-out: Maximal Effect %; for Schild plot: vs SB-269970, p value in parentheses; for PA2 (vs SB-269970): in the presence of antagonist SB-269970 (0.1 μM-3 μM).

In another experiment the target is 5-HT2A receptors (Rattus norvegicus, UniProt P14842). The experiment in a line: Radioligand binding assay ([3H]-ketanserin) at rat cortex membranes 5-HT2A receptors. To be noted: read-out: Ki, nM 5-HT2A; [3H]-ketanserin, rat cortex membranes.
Sequence of 5-HT2A receptors (P14842 whole entry): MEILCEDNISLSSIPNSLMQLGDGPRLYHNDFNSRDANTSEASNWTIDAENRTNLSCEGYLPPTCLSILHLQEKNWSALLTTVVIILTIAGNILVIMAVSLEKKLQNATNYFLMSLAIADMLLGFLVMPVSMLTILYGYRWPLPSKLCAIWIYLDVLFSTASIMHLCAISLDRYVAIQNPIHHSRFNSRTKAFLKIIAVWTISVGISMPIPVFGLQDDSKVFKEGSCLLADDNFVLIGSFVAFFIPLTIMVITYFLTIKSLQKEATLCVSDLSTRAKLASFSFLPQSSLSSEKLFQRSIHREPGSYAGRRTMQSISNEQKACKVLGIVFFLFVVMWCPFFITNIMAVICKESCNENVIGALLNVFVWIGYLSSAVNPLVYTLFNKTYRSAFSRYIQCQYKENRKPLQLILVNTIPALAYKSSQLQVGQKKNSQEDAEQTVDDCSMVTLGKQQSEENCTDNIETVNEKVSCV

T1 sequence (P32305 whole entry): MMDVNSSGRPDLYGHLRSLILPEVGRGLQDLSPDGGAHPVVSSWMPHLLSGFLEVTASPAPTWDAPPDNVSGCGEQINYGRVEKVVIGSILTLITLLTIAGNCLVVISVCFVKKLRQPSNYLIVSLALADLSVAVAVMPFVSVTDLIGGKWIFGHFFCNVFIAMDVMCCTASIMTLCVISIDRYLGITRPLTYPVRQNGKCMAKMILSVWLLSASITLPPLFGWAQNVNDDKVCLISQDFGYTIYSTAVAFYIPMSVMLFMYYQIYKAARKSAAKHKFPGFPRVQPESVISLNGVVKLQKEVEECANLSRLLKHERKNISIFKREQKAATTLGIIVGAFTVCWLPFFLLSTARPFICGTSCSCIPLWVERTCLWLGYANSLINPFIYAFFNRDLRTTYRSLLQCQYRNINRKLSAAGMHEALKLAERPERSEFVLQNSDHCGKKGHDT
Sequence of 5-HT7 receptor (P50407 whole entry): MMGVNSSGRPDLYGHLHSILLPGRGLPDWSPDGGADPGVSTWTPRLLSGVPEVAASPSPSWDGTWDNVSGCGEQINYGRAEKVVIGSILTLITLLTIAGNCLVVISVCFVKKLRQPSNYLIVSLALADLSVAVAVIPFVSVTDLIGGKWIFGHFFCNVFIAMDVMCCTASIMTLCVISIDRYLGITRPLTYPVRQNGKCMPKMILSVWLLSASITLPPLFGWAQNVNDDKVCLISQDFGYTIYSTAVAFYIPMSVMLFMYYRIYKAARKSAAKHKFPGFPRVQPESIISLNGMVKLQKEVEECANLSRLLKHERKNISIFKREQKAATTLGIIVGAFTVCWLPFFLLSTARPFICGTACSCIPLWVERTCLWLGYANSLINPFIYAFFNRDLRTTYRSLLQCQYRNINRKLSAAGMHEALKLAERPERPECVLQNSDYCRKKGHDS
Description for 5-HT1A receptors: Radioligand Binding Assay at Rat Hippocampal Membranes 5-HT1A Receptors. Binding experiments were performed according to a known method. Rats were killed by decapitation, the brain was quickly removed, and the hippocampus was dissected. […] The homogenate was centrifuged at 48000 g for 15 min at 4° C. The supernatant was discarded, and the pellet was resuspended in 25 mL of buffer, then preincubated for 10 min at 37° C. The homogenate was centrifuged at 48000 g for 15 min at 4° C. The supernatant was discarded, and the final pellet was stored at −80° C. until used. […] For competitive inhibition experiments various concentrations of drugs studied were incubated. […] Samples were incubated at 37° C. for 20 min and then filtered on Whatman GF/B glass microfiber filters.
Statistical Analysis. […] The value for the inhibition constant, Ki, was calculated by using the Cheng-Prusoff equation.
Description for 5-HT2A receptors: Radioligand Binding Assay at Rat Cortex Membranes 5-HT2A Receptors. […] Rats were killed by decapitation, the brain was quickly removed, and the cortex was dissected. […] The homogenate was centrifuged at 2000 g for 10 min at 4° C. The supernatant was saved, and the pellet was resuspended in 25 mL of buffer. The surnatantes were collected and diluted 1:10 w/w with 10 mM Tris pH 7.4. The homogenate was centrifugated at 35000 g for 15 min at 4° C. The supernatant was discarded, and the final pellet was stored at −80° C. until used. […] For competitive inhibition experiments various concentrations of drugs studied were incubated. […] Samples were incubated at 37° C. for 15 min and then filtered on Whatman GF/B glass microfiber filters.
Statistical Analysis. […] PRISM® program. The value for the inhibition constant, Ki, was calculated by using the Cheng-Prusoff equation.

As usually defined, the Ki is the equilibrium dissociation constant of an inhibitor or competing ligand from its target. In the case of `COc1ccc2c(c1)CCCC2NC(=O)CCCCN1CCN(c2ccccc2OC)CC1` (centres unmarked) [Compound 18], the Ki was 43.1 ± 4.8 nM in experiment [1] and 23.2 ± 2.3 nM on 5-HT1A receptors.
The matching figures for `COc1ccccc1N1CCN(CCCCC(=O)NC2CCCc3c(OC)cccc32)CC1` (centres unmarked) [Compound 15]: 28.2 ± 4.2 nM and 54.4 ± 6.5 nM.
As for `O=C(CCCCCN1CCN(c2ccccc2O)CC1)NC1CCCc2ccccc21` (centres unmarked) [Compound 46, 4-(2-Hydroxyphenyl)-N-(1,2,3,4-tetrahydronaphthalen-1-yl)-1-piperazinehexanamide], on 5-HT7 receptor, the “5-HT7 intrinsic activity (in words)” value is “antagonist”, the Emax amounted to 0% and the Schild plot is 1.6 (p < 0.005). Moreover, in experiment [1], the “5-HT7R affinity (in words)” value is given as “high affinity” and the Ki is 11.4 ± 2.3 nM. At 5-HT2A receptors, the Ki amounted to 3390 ± 225 nM. In addition, on 5-HT1A receptors, the Ki amounted to 24 ± 6.3 nM.
`COc1ccccc1N1CCN(CCCCC(=O)NC2CCCc3ccccc32)CC1` (centres unmarked) [Compound 27, 4-(2-Methoxyphenyl)-N-(1,2,3,4-tetrahydronaphthalen-1-yl)-1-piperazinepentanamide]: the values for the Ki (in experiment [1]; at 5-HT1A receptors) were 6.05 ± 0.25 nM and 9 ± 0.7 nM, respectively.
For the compound `COc1ccccc1N1CCN(CCCCC(=O)NC2CCCc3cccc(OC)c32)CC1` (centres unmarked) [Compound 24], the inhibition constant Ki was determined as 64 ± 12 nM in experiment [1] and 72 ± 18 nM on 5-HT1A receptors.
The matching figures for `COc1ccccc1N1CCN(CCCC(=O)NC2CCCc3ccccc32)CC1` (centres unmarked) [Compound 26, 4-(2-Methoxyphenyl)-N-(1,2,3,4-tetrahydronaphthalen-1-yl)-1-piperazinebutanamide]: 92 ± 12 nM and 245 ± 20 nM.
Turning to `O=C(CCCCCN1CCN(c2ccccc2Cl)CC1)NC1CCCc2ccccc21` (centres unmarked) [Compound 47], the Ki is 40.1 ± 6.7 nM in experiment [1], 301 ± 12 nM on 5-HT2A receptors and 96 ± 8 nM at 5-HT1A receptors.
Turning to `COc1ccccc1N1CCN(CCCCCC(=O)NC2CCCc3cccc(OC)c32)CC1` (centres unmarked) [Compound 25], the Ki stood at 31.4 ± 3.5 nM in experiment [1] and 30 ± 2.6 nM on 5-HT1A receptors.
One may read the EC50 as the concentration giving half of the maximal effect. As for `CC(=O)c1ccccc1N1CCN(CCCCCC(=O)NC2CCCc3ccccc32)CC1` (centres unmarked) [Compound 34, 4-(2-Acetylphenyl)-N-(1,2,3,4-tetrahydronaphthalen-1-yl)-1-piperazinehexanamide], on 5-HT7 receptor, the response was half-maximal at 2460 ± 700 nM (EC50), the “PA2 (vs SB-269970)” value was 7.60 ± 0.49, the “5-HT7 intrinsic activity (in words)” value was “partial agonist” and the Emax was determined as 79%. For the same compound, the Schild plot on 5-HT7 receptor is recorded as 1.3 (p < 0.0001). Besides, in experiment [1], the “5-HT7R affinity (in words)” value is recorded as “reasonably good 5-HT7R affinity; also recorded: high affinity” and the Ki is 4.14 ± 0.8 nM. Besides, the inhibition constant (Ki) on 5-HT2A receptors turned out to be 12200 ± 350 nM. Further, the Ki on 5-HT1A receptors was 3.8 ± 0.1 nM.
With `COc1ccc2c(c1)C(NC(=O)CCCCN1CCN(c3ccccc3OC)CC1)CCC2` (centres unmarked) [Compound 21], the Ki in experiment [1] was 38.4 ± 4.6 nM; at 5-HT1A receptors, 78.9 ± 6.3 nM.
In the case of `N#Cc1ccccc1N1CCN(CCCCCC(=O)NC2CCCc3ccccc32)CC1` (centres unmarked) [Compound 33], the “5-HT7R affinity (in words)” value in experiment [1] is given as “reasonably good 5-HT7R affinity”. Further, the Ki in experiment [1] came to 48.7 ± 2.5 nM; at 5-HT2A receptors it was 700 ± 25 nM; on 5-HT1A receptors, 16.6 ± 1.4 nM.
In the case of `O=C(CCCCCN1CCN(c2ccccc2)CC1)NC1CCCc2ccccc21` (centres unmarked) [Compound 50], the results for the Ki (in experiment [1]; at 5-HT2A receptors; at 5-HT1A receptors) were 65.6 ± 4.7 nM, 77.8 ± 5.7 nM and 128 ± 22 nM, respectively.
As to `COc1ccccc1N1CCN(CCCCCC(=O)NC2CCCc3c(OC)cccc32)CC1` (centres unmarked) [Compound 16], the inhibition constant Ki in experiment [1] turned out to be 20 ± 2.5 nM; on 5-HT1A receptors, 24.5 ± 1.8 nM.
Consider `COc1ccc2c(c1)C(NC(=O)CCCCCN1CCN(c3ccccc3OC)CC1)CCC2` (centres unmarked) [Compound 22], for which the Ki is 41 ± 11 nM in experiment [1] and 39 ± 6.5 nM at 5-HT1A receptors.
As to `COc1ccccc1N1CCN(CCCC(=O)NC2CCCc3c(OC)cccc32)CC1` (centres unmarked) [Compound 7, N-(5-methoxy-1,2,3,4-tetrahydronaphthalen-1-yl)-4-(2-methoxyphenyl)-1-piperazinebutanamide], in experiment [1], the “5-HT7R affinity (in words)” value is “moderate affinities” and the Ki turned out to be 35 ± 3.2 nM. Further, on 5-HT1A receptors, the “5-HT1A receptor affinity (in words)” value is “moderate affinities” and the Ki was determined as 254 ± 65 nM.
On to `COc1ccccc1N1CCN(CCCCCC(=O)NC2CCCc3ccccc32)CC1` (centres unmarked) [Compound 28, 4-(2-Methoxyphenyl)-N-(1,2,3,4-tetrahydronaphthalen-1-yl)-1-piperazinehexanamide], for which, on 5-HT7 receptor, the midpoint of the response, the EC50, lay at 6320 ± 200 nM; the “PA2 (vs SB-269970)” value is on record as 8.02 ± 1.40; the “5-HT7 intrinsic activity (in words)” value is recorded as “Full agonists”; the Emax was 91%. Further, the Schild plot at 5-HT7 receptor is 1.0 (p < 0.0001). In experiment [1], the “5-HT7R affinity (in words)” value is “high affinity” and the Ki is 6.64 ± 0.6 nM. Further, on 5-HT1A receptors, the inhibition constant Ki amounted to 8.6 ± 0.35 nM.
Regarding `CC(=O)c1cccc(N2CCN(CCCCCC(=O)NC3CCCc4ccccc43)CC2)c1` (centres unmarked) [Compound 41], the results for the Ki (in experiment [1]; at 5-HT2A receptors; on 5-HT1A receptors) were 496 ± 24 nM, 1130 ± 200 nM and 676 ± 32 nM, respectively.
For the compound `COc1ccc(OC)c(N2CCN(CCCCCC(=O)NC3CCCc4ccccc43)CC2)c1` (centres unmarked) [Compound 36], the Ki in experiment [1] was 70.3 ± 5.2 nM; on 5-HT2A receptors, 259 ± 20 nM; on 5-HT1A receptors it was 911 ± 23 nM.
As for `COc1ccc2c(c1)CCCC2NC(=O)CCCN1CCN(c2ccccc2OC)CC1` (centres unmarked) [Compound 17], the Ki in experiment [1] was determined as 186 ± 40 nM; at 5-HT1A receptors, 257 ± 25 nM.
Take `N#Cc1cccc(N2CCN(CCCCCC(=O)NC3CCCc4ccccc43)CC2)c1` (centres unmarked) [Compound 39]: the results for the Ki (in experiment [1]; on 5-HT2A receptors; at 5-HT1A receptors) were 97.8 ± 5.6 nM, 909 ± 85 nM and 291 ± 15 nM, respectively.
With `COc1ccc2c(c1)CCCC2NC(=O)CCCCCN1CCN(c2ccccc2OC)CC1` (centres unmarked) [Compound 19], the Ki in experiment [1] came to 30 ± 3.15 nM; at 5-HT1A receptors it was 55 ± 8 nM.
With `COc1ccccc1N1CCN(CCCC(=O)NC2CCCc3cccc(OC)c32)CC1` (centres unmarked) [Compound 23, N-(8-Methoxy-1,2,3,4-tetrahydronaphthalen-1-yl)4-(2-methoxyphenyl)-1-piperazinebutanamide], the Ki in experiment [1] was 154 ± 35 nM; on 5-HT1A receptors it was 441 ± 20 nM.
For `NCCc1c[nH]c2ccc(C(N)=O)cc12` [5-CT, reference compound], the Ki in experiment [1] came out at 0.51 ± 0.01 nM.
Turning to `COc1ccc(N2CCN(CCCCCC(=O)NC3CCCc4ccccc43)CC2)cc1` (centres unmarked) [Compound 38], in experiment [1], the “5-HT7R affinity (in words)” value was “nearly devoid of 5-HT7R affinity” and the Ki worked out at 2100 ± 150 nM.
The matching figures for `N#Cc1ccc(N2CCN(CCCCCC(=O)NC3CCCc4ccccc43)CC2)cc1` (centres unmarked) [Compound 40]: “nearly devoid of 5-HT7R affinity” and 1400 ± 120 nM.
`COc1ccccc1N1CCN(CCC(=O)NC2CCCc3c(OC)cccc32)CC1` (centres unmarked) [Compound 6]: in experiment [1], the “5-HT7R affinity (in words)” value was “moderate affinities” and the Ki turned out to be 269 ± 18 nM. Also, the “5-HT1A receptor affinity (in words)” value at 5-HT1A receptors was “moderate affinities”.
`Cc1ccccc1N1CCN(CCCCCC(=O)NC2CCCc3ccccc32)CC1` (centres unmarked) [Compound 49, 4-(2-Methylphenyl)-N-(1,2,3,4-tetrahydronaphthalen-1-yl)-1-piperazinehexanamide]: on 5-HT7 receptor, the EC50 was 1820 ± 720 nM, the “PA2 (vs SB-269970)” value was 7.80 ± 0.40, the “5-HT7 intrinsic activity (in words)” value was “Full agonists” and the Emax was 98%. On 5-HT7 receptor, the Schild plot is on record as 0.9 (p < 0.0001). In experiment [1], the “5-HT7R affinity (in words)” value was “high affinity” and the Ki was 15.2 ± 3.2 nM. Moreover, the Ki on 5-HT2A receptors was found to be 262 ± 24 nM. Further, the Ki on 5-HT1A receptors amounted to 279 ± 44 nM.
On to `COc1cccc(N2CCN(CCCCCC(=O)NC3CCCc4ccccc43)CC2)c1` (centres unmarked) [Compound 37], for which the inhibition constant Ki came out at 119 ± 20 nM in experiment [1], 142 ± 20 nM at 5-HT2A receptors and 105 ± 12 nM on 5-HT1A receptors.
The matching figures for `O=C(CCCCCN1CCN(c2ccccc2[N+](=O)[O-])CC1)NC1CCCc2ccccc21` (centres unmarked) [Compound 48]: 63.3 ± 7.5 nM, 282 ± 35 nM and 183 ± 15 nM.
In the case of `COc1ccc2c(c1)C(NC(=O)CCCN1CCN(c3ccccc3OC)CC1)CCC2` (centres unmarked) [Compound 20], the Ki in experiment [1] came to 129 ± 5 nM; on 5-HT1A receptors, 160 ± 12 nM.
As to `COc1cc(Cl)ccc1N1CCN(CCCCCC(=O)NC2CCCc3ccccc32)CC1` (centres unmarked) [Compound 35], the Ki is 122 ± 14 nM in experiment [1], 7170 ± 150 nM at 5-HT2A receptors and 332 ± 27 nM on 5-HT1A receptors.
Regarding `CC(=O)c1ccc(N2CCN(CCCCCC(=O)NC3CCCc4ccccc43)CC2)cc1` (centres unmarked) [Compound 42], in experiment [1], the “5-HT7R affinity (in words)” value is “nearly devoid of 5-HT7R affinity” and the Ki stood at 2640 ± 130 nM.

For the origin of these results see patent US7488730B2, “N-(1,2,3,4-tetrahydronaphthalen-1-yl)-4-phenyl-1-piperazinealkylamide derivatives, and therapeutic use thereof as 5-HT7 receptor ligands” (Universita Degli Studi Di Bari, priority 2005, dated 2009).
